Data as given in patent US20230148214A1, “INDAZOLES AND AZAINDAZOLES AS LRRK2 INHIBITORS” (ESCAPE Bio, Inc., priority 2020, published 2023).

How the values were obtained:
LRRK2 G2019S = target: T1, LRRK2 G2019S (Homo sapiens, UniProt Q5S007, G2019S); experiment: LRRK2 Kinase Activity Assay (LanthaScreen TR-FRET), G2019S; assay type: biochemical; settings: recombinant G2019S-LRRK2, 25 μM ATP, 400 nM LRRKtide, 60 min; class symbols
T1 construct: purchased Life Technologies PV4881
Outline: (§1)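 Recombinant wild-type or G2019S LRRK2 incubated with fluorescein-labeled LRRKtide (ERM-based) peptide, ATP and serially diluted compound for 60 min at room temperature.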

LRRK2 WT = target: T2, LRRK2 WT (Homo sapiens, UniProt Q5S007); experiment: LRRK2 Kinase Activity Assay (LanthaScreen TR-FRET), wild type; assay type: biochemical; settings: recombinant wild type LRRK2, 25 μM ATP, 400 nM LRRKtide, 60 min; class symbols
T2 construct: purchased Life Technologies PR8604B
Outline: as §1

T1 sequence (Q5S007 whole entry G2019S): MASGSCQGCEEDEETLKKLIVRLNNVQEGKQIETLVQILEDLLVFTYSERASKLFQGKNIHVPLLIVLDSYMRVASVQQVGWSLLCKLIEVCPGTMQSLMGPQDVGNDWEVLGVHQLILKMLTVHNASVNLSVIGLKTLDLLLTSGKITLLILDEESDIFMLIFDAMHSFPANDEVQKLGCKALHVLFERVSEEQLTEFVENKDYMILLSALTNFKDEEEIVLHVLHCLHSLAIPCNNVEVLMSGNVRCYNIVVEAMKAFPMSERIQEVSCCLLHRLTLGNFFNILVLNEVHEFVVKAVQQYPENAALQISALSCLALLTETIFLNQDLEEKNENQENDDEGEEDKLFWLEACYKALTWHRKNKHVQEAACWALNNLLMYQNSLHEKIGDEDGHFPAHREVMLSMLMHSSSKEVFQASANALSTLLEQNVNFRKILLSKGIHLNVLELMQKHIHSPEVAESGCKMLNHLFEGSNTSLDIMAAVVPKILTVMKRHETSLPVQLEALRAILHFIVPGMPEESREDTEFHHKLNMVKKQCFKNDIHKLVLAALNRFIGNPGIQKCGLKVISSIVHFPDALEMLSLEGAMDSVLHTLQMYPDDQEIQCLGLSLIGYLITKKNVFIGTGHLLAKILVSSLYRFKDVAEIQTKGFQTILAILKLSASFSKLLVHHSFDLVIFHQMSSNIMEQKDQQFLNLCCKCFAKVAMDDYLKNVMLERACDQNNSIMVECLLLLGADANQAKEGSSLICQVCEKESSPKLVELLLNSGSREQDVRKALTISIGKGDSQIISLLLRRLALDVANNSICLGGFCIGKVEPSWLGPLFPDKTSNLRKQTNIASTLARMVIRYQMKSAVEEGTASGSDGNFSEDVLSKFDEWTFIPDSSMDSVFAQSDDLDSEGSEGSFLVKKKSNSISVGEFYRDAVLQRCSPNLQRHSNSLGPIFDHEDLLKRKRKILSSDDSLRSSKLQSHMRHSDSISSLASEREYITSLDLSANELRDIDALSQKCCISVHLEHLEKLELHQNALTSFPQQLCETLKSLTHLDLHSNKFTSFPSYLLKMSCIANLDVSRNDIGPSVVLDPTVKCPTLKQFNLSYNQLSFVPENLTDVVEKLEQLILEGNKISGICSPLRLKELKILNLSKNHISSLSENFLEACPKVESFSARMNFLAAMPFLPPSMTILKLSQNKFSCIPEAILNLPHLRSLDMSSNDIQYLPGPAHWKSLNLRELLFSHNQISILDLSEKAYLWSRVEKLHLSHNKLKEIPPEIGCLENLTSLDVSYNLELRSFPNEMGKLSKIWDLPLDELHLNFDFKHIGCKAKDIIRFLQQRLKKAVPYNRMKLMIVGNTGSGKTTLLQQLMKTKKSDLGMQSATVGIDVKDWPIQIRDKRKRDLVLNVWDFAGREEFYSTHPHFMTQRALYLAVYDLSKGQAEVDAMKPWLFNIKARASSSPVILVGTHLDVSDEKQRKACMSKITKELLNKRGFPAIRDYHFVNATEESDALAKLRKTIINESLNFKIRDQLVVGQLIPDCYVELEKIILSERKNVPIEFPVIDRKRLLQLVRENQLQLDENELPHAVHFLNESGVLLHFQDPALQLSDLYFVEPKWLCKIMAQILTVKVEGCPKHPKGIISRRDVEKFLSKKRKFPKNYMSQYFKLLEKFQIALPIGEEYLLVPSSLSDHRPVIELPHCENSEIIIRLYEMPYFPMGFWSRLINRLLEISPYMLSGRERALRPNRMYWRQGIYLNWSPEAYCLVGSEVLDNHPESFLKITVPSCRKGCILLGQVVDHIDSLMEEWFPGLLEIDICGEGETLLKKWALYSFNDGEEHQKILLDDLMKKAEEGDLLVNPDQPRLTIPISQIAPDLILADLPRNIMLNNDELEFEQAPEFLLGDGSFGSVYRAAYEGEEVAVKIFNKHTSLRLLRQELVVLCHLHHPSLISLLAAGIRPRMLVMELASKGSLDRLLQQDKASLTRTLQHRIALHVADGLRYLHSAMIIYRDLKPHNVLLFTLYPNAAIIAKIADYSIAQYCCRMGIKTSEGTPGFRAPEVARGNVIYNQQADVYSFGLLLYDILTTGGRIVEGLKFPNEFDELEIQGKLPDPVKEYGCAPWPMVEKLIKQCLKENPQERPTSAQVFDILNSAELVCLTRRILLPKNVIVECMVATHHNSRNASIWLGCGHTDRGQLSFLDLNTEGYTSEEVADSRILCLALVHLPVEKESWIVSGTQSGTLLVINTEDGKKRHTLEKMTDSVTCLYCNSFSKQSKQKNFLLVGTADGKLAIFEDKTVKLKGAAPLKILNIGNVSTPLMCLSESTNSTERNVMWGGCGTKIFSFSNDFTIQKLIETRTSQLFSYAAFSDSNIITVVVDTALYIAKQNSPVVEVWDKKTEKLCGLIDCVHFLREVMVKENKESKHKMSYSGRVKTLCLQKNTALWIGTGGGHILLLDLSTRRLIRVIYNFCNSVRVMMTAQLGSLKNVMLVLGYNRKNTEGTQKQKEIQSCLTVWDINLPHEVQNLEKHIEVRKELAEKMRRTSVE
T2 sequence (Q5S007 whole entry): as the sequence (Q5S007 whole entry G2019S) above, with S2019G counted along it

Structure (SMILES) | IC50 (LRRK2 G2019S) [µM] | IC50 (LRRK2 WT) [µM]
N#Cc1ccc2c(c1)CCCC[C@@H]2Nc1ccc2[nH]nc(-c3cnco3)c2c1 (single isomer, unassigned) [Example 104, enantiomer 2, 5-((3-(Oxazol-5-yl)-1H-indazol-5-yl)amino)-6,7,8,9-tetrahydro-5H-benzo[7]annulene-2-carbonitrile] | 0.1 to 1 | 0.1 to 1
CC1(C)C[C@H](Nc2ccc3[nH]nc(-c4cnco4)c3c2)c2ccc(C#N)cc21 (single isomer, unassigned) [Example 105, enantiomer 1, 3,3-Dimethyl-1-((3-(oxazol-5-yl)-1H-indazol-5-yl)amino)-2,3-dihydro-1H-indene-5-carbonitrile] | < 0.1 | 0.1 to 1
CC1(C)C[C@H](Nc2ccc3[nH]nc(-c4cnco4)c3c2)c2ccc(C#N)cc21 (single isomer, unassigned) [Example 105, enantiomer 2, 3,3-Dimethyl-1-((3-(oxazol-5-yl)-1H-indazol-5-yl)amino)-2,3-dihydro-1H-indene-5-carbonitrile] | < 0.1 | 0.1 to 1
Cc1nc2c(cc1C#N)CCC[C@@H]2Nc1ccc2[nH]nc(-c3cnco3)c2c1 (single isomer, unassigned) [Example 106, enantiomer 1, 2-Methyl-8-((3-(oxazol-5-yl)-1H-indazol-5-yl)amino)-5,6,7,8-tetrahydroquinoline-3-carbonitrile] | < 0.1 | 0.1 to 1
Cc1c(C#N)cnc2c1CC[C@@H]2Oc1ccc2[nH]nc(-c3cnco3)c2c1 (single isomer, unassigned) [Example 107, enantiomer 1, 4-Methyl-7-((3-(oxazol-5-yl)-1H-indazol-5-yl)oxy)-6,7-dihydro-5H-cyclopenta[b]pyridine-3-carbonitrile] | < 0.1 | < 0.1
Cc1c(C#N)cnc2c1CC[C@@H]2Oc1ccc2[nH]nc(-c3cnco3)c2c1 (single isomer, unassigned) [Example 107, enantiomer 2, 4-Methyl-7-((3-(oxazol-5-yl)-1H-indazol-5-yl)oxy)-6,7-dihydro-5H-cyclopenta[b]pyridine-3-carbonitrile] | < 0.1 | 0.1 to 1
Cc1c(C#N)cnc2c1CC[C@@H]2Nc1ccc2[nH]nc(-c3cnco3)c2c1 (single isomer, unassigned) [Example 108, enantiomer 1, 4-Methyl-7-((3-(oxazol-5-yl)-1H-indazol-5-yl)amino)-6,7-dihydro-5H-cyclopenta[b]pyridine-3-carbonitrile] | < 0.1 | 0.1 to 1
N#Cc1cnc2c(c1)CC[C@@H]2Nc1ccc2[nH]nc(-c3cnco3)c2c1 (single isomer, unassigned) [Example 109, enantiomer 1, 7-((3-(Oxazol-5-yl)-1H-indazol-5-yl)amino)-6,7-dihydro-5H-cyclopenta[b]pyridine-3-carbonitrile] | < 0.1 | < 0.1
N#Cc1cnc2c(c1)CC[C@@H]2Nc1ccc2[nH]nc(-c3cnco3)c2c1 (single isomer, unassigned) [Example 109, enantiomer 2, 7-((3-(Oxazol-5-yl)-1H-indazol-5-yl)amino)-6,7-dihydro-5H-cyclopenta[b]pyridine-3-carbonitrile] | < 0.1 | 0.1 to 1
Cc1cc2c(cc1C#N)CCC[C@@H]2Nc1ccc2[nH]nc(-c3cnco3)c2c1 (single isomer, unassigned) [Example 110, enantiomer 1, 3-Methyl-5-((3-(oxazol-5-yl)-1H-indazol-5-yl)amino)-5,6,7,8-tetrahydronaphthalene-2-carbonitrile] | < 0.1 | < 0.1
Cc1cc2c(cc1C#N)CCC[C@@H]2Nc1ccc2[nH]nc(-c3cnco3)c2c1 (single isomer, unassigned) [Example 110, enantiomer 2, 3-Methyl-5-((3-(oxazol-5-yl)-1H-indazol-5-yl)amino)-5,6,7,8-tetrahydronaphthalene-2-carbonitrile] | < 0.1 | 0.1 to 1
CN(c1ccc2[nH]nc(-c3cnco3)c2c1)[C@H]1CCc2cc(C#N)ccc21 (single isomer, unassigned) [Example 111, enantiomer 1, 1-(Methyl(3-(oxazol-5-yl)-1H-indazol-5-yl)amino)-2,3-dihydro-1H-indene-5-carbonitrile] | < 0.1 | < 0.1
CN(c1ccc2[nH]nc(-c3cnco3)c2c1)[C@H]1CCc2cc(C#N)ccc21 (single isomer, unassigned) [Example 111, enantiomer 2, 1-(Methyl(3-(oxazol-5-yl)-1H-indazol-5-yl)amino)-2,3-dihydro-1H-indene-5-carbonitrile] | < 0.1 | 0.1 to 1
N#Cc1cc2c(nc1Cl)[C@@H](Nc1ccc3[nH]nc(-c4cnco4)c3c1)CCC2 (single isomer, unassigned) [Example 112, enantiomer 1, 2-Chloro-8-((3-(oxazol-5-yl)-1H-indazol-5-yl)amino)-5,6,7,8-tetrahydroquinoline-3-carbonitrile] | < 0.1 | 0.1 to 1
COc1c(C#N)ccc2c1CC[C@@H]2Nc1ccc2[nH]nc(-c3cnco3)c2c1 (single isomer, unassigned) [Example 113, enantiomer 1, 4-Methoxy-1-((3-(oxazol-5-yl)-1H-indazol-5-yl)amino)-2,3-dihydro-1H-indene-5-carbonitrile] | < 0.1 | < 0.1
COc1cc2c(cc1C#N)CCC[C@@H]2Nc1ccc2[nH]nc(-c3cnoc3)c2c1 (single isomer, unassigned) [Example 114, enantiomer 1, 5-((3-(Isoxazol-4-yl)-1H-indazol-5-yl)amino)-3-methoxy-5,6,7,8-tetrahydronaphthalene-2-carbonitrile] | 0.1 to 1 | 0.1 to 1
COc1cc2c(cc1C#N)CCC[C@@H]2Nc1ccc2[nH]nc(-c3cnoc3)c2c1 (single isomer, unassigned) [Example 114, enantiomer 2, 5-((3-(Isoxazol-4-yl)-1H-indazol-5-yl)amino)-3-methoxy-5,6,7,8-tetrahydronaphthalene-2-carbonitrile] | < 0.1 | < 0.1
CC1(C)CC[C@H](Nc2ccc3[nH]nc(-c4cnco4)c3c2)c2ccc(C#N)cc21 (single isomer, unassigned) [Example 115, enantiomer 1, 8,8-Dimethyl-5-((3-(oxazol-5-yl)-1H-indazol-5-yl)amino)-5,6,7,8-tetrahydronaphthalene-2-carbonitrile] | < 0.1 | 0.1 to 1
CC1(C)CC[C@H](Nc2ccc3[nH]nc(-c4cnco4)c3c2)c2ccc(C#N)cc21 (single isomer, unassigned) [Example 115, enantiomer 2, 8,8-Dimethyl-5-((3-(oxazol-5-yl)-1H-indazol-5-yl)amino)-5,6,7,8-tetrahydronaphthalene-2-carbonitrile] | < 0.1 | 0.1 to 1
CCc1cc(-c2n[nH]c3ccc(N[C@H]4CCCc5cc(C#N)ccc54)cc23)ccn1 (single isomer, unassigned) [Example 116, enantiomer 1, 5-((3-(2-Ethylpyridin-4-yl)-1H-indazol-5-yl)amino)-5,6,7,8-tetrahydronaphthalene-2-carbonitrile] | < 0.1 | < 0.1
Cc1c(C#N)ccc2c1CC[C@H]2Nc1ccc2[nH]nc(-c3cnoc3)c2c1 (single isomer, unassigned) [Example 118, enantiomer 1, 1-((3-(Isoxazol-4-yl)-1H-indazol-5-yl)amino)-4-methyl-2,3-dihydro-1H-indene-5-carbonitrile] | < 0.1 | < 0.1
N#Cc1ccc2c(c1)CCC[C@H]2Nc1ccc2[nH]nc(-c3cnco3)c2c1 (single isomer, unassigned) [Example 119, enantiomer 1, 5-((3-(Oxazol-5-yl)-1H-indazol-5-yl)amino)-5,6,7,8-tetrahydronaphthalene-2-carbonitrile] | < 0.1 | 0.1 to 1
N#Cc1cnc2c(c1)CCC[C@H]2Nc1ccc2[nH]nc(-c3cnco3)c2c1 (single isomer, unassigned) [Example 120, enantiomer 1, 8-((3-(Oxazol-5-yl)-1H-indazol-5-yl)amino)-5,6,7,8-tetrahydroquinoline-3-carbonitrile] | < 0.1 | < 0.1
CCc1cc(-c2n[nH]c3ccc(O[C@@H]4CCCc5cc(C#N)cnc54)cc23)ccn1 (single isomer, unassigned) [Example 121, enantiomer 1, 8-((3-(2-Ethylpyridin-4-yl)-1H-indazol-5-yl)oxy)-5,6,7,8-tetrahydroquinoline-3-carbonitrile] | < 0.1 | < 0.1
N#Cc1cc2c(cn1)[C@H](Oc1ccc3[nH]nc(-c4cnco4)c3c1)CCC2 (single isomer, unassigned) [Example 122, enantiomer 1, 8-((3-(Oxazol-5-yl)-1H-indazol-5-yl)oxy)-5,6,7,8-tetrahydroisoquinoline-3-carbonitrile] | < 0.1 | 0.1 to 1
COc1cc(-c2n[nH]c3ccc(O[C@H]4CCCc5cc(C#N)cnc54)cc23)ccn1 (single isomer, unassigned) [Example 123, enantiomer 1, 8-((3-(2-Methoxypyridin-4-yl)-1H-indazol-5-yl)oxy)-5,6,7,8-tetrahydroquinoline-3-carbonitrile] | < 0.1 | < 0.1
N#Cc1ccc2c(c1)CC[C@@H]2Oc1ccc2[nH]nc(C3CC3)c2c1 (single isomer, unassigned) [Example 124, enantiomer 1, 1-((3-Cyclopropyl-1H-indazol-5-yl)oxy)-2,3-dihydro-1H-indene-5-carbonitrile] | < 0.1 | 0.1 to 1
